Assays:
hCAR promoter = test: NHR-promoter luciferase screen, hCAR promoter; format: cell-based, human; settings: for luciferase activity normalized to lacZ activity and to a control, hCAR: hCAR promoter-luciferase, CV-1 cells, NHR +/- ligand, control = 1.00; for Luc. act., normalized to lacZ / Normalized Luc. act., normalized to control: hCAR promoter, HR/ligand component
Description: (§1) The use, feasibility, and reproducibility of the functional NHR-promoter screen in a 48-well format have been tested validated. Briefly, there were co-expressed 50 ng of each NHR/NHR homodimer or NHR/RXR heterodimer with 100 ng promoter/luciferase construct and 50 ng of LacZ (as a control for transfection efficiency) in CV-1 cells using Fugene HD (Roche) as a transfection reagent (alternatively or additionally, a CMV-YFP construct can be used as a transfection control). Each of the nuclear hormone receptors that were used in these experiments was cloned into a pcDNA3.1 vector and comprised a C-terminally linked V5H6 tag. Twenty-four hours after transfection, appropriate ligands were added, where applicable, (see Table 5 for various ligands and concentrations and after 48 hrs, samples were assayed for luciferase and LacZ activity. To measure for luciferase activity 15 ul of sample was added to 30 ul of luciferase buffer (20 mM tricine, 1.07 mM MgCarbonate, 2.67 mM MgSulfate, 0.1 mM Naz-EDTA, 5 mM DTT, 5 mM ATP, 0.15 mg/ml CoA, 0.5 mM Luciferin), mixed briefly, and run in a Perkin Elmer Victor 5 luminometer. Thus, the functional NHR-promoter screen was used to observe the transcriptional activity of 29 promoters from various physiological pathways including inflammation, lipid and sugar metabolism, cholesterol transport, xenobiotic metabolism, and circadian rhythm.
(§2) The promoters that facilitate transcription of the indicated gene products that were tested using the protocols described herein are listed in the first row of the table. The nuclear hormone receptors and, where applicable, ligands that were assayed for their transcriptional effects on the promoters are listed in the first column of the table. The data represent the luciferase activity of each sample normalized to both the lacZ activity of that sample and to a control, e.g., no NHR or ligand, as customary in the art. As described previously, these normalizations allow the transcriptional activity of each reporter cell to be compared to other samples.
(§3) Tables 7-40 show the transcriptional effects of the hormone receptors, and, where applicable, ligands (orphan receptors are screened without ligand), on each individual promoter. […] The control data of each table are shown in their last rows.

mNPY promoter = test: NHR-promoter luciferase screen, mNPY promoter; format: cell-based, mouse; settings: for Results of assays of transcription factor (+/- ligand) with mNPY: Table 6d, luciferase activity relative to control (control = 1.00); for Luc. act., normalized to lacZ / Normalized Luc. act., normalized to control: mNPY promoter, HR component with or without ligand; for Normalized Luc. act., normalized to control: relative to control
Description: as §1, §2, §3

hTNFa promoter = test: NHR-promoter luciferase screen, hTNFa promoter; format: cell-based, human; settings: for Luc. act., normalized to lacZ / Normalized Luc. act., normalized to control: TNFa promoter, HR component without or with ligand; for hTNFa promoter reporter activity: transcription factor +/- ligand, control = 1.00
Description: as §1, §2, §3

Molecule	luciferase activity normalized to lacZ activity and to a control, hCAR (hCAR promoter)	Luc. act., normalized to lacZ (hCAR promoter)	Normalized Luc. act., normalized to control (hCAR promoter)	Results of assays of transcription factor (+/- ligand) with mNPY (mNPY promoter)	Luc. act., normalized to lacZ (mNPY promoter)	Normalized Luc. act., normalized to control (mNPY promoter)	Luc. act., normalized to lacZ (hTNFa promoter)	Normalized Luc. act., normalized to control (hTNFa promoter)	hTNFa promoter reporter activity (hTNFa promoter)
AR: Androsterone Receptor (NR3C4), cDNA driver	0.89	28.0	0.9	1.12	93.8	1.1	1019.9	1.0	1.04
ERR1: Estrogen Related Receptor α (NR3B1, ERRa), cDNA driver	0.82	25.8	0.8	0.83	69.6	0.8	1234.7	1.3	1.26
GR: Glucocorticoid Receptor (NR3C1), cDNA driver	0.36	11.25	0.4	0.57	47.8	0.6	463.3	0.5	0.47
NR4a1: NR4a1 (NR4A1; NUR77), nuclear hormone receptor cDNA driver	0.97	30.7	1.0	0.92	77.0	0.9	1575.8	1.6	1.60
PNR: Photoreceptor-specific Nuclear Receptor (NR2E3), cDNA driver	0.38	11.9	0.4	2.00	168.3	2.0	558.4	0.6	0.57
PPARa: Peroxisome proliferator activated receptor α (NR1C1), cDNA driver	1.39	43.9	1.4	0.62	51.7	0.6	1107.9	1.1	1.13
RXRa: Retinoic X Receptor α (NR2B1), cDNA driver	0.78	24.7	0.8	0.95	80.0	1.0	954.8	1.0	0.97
SF-1: Steroidogenic Factor 1 (NR5A1, SF1), cDNA driver	3.60	113.6	3.6	2.12	177.6	2.1	1900.9	1.9	1.93
TLX: Tailless (homolog of drosophila) (NR2E1), cDNA driver	0.56	17.6	0.6	1.11	93.5	1.1	1085.1	1.1	1.10
VDR: Vitamin D Receptor (NR1I1), cDNA driver	0.83	26.1	0.8	0.79	66.7	0.8	986.3	1.0	1.00
HNF4a: Hepatocyte Nuclear Factor α (NR2A1), cDNA driver (protein, UniProt P41235 1-474, looked up) Hepatocyte nuclear factor …: MRLSKTLVDMDMADYSAALDPAYTTLEFENVQVLTMGNDTSPSEGTNLNAPNSLGVSALCAICGDRATGKHYGASSCDGCKGFFRRSVRKNHMYSCRFSRQCVVDKDKRNQCRYCRLKKCFRAGMKKEAVQNERDRISTRRSSYEDSSLPSINALLQAEVLSRQITSPVSGINGDIRAKKIASIADVCESMKEQLLVLVEWAKYIPAFCELPLDDQVALLRAHAGEHLLLGATKRSMVFKDVLLLGNDYIVPRHCPELAEMSRVSIRILDELVLPFQELQIDDNEYAYLKAIIFFDPDAKGLSDPGKIKRLRSQVQVSLEDYINDRQYDSRGRFGELLLLLPTLQSITWQMIEQIQFIKLFGMAKIDNLLQEMLLGGSPSDAPHAHHPLHPHLMQEHMGTNVIVANTMPTHLSNGQMCEWPRPRGQAATPETPQPSPPGGSGSEPYKLLPGAVATIVKPLSAIPQPTITKQEVI	15.62	493.6	15.6	0.52	43.5	0.5	852.9	0.9	0.87
RORa: RAR-related Orphan Receptor α (NR1F1), cDNA driver (protein, UniProt P35398 1-523, looked up) Nuclear receptor ROR-alpha: MESAPAAPDPAASEPGSSGADAAAGSRETPLNQESARKSEPPAPVRRQSYSSTSRGISVTKKTHTSQIEIIPCKICGDKSSGIHYGVITCEGCKGFFRRSQQSNATYSCPRQKNCLIDRTSRNRCQHCRLQKCLAVGMSRDAVKFGRMSKKQRDSLYAEVQKHRMQQQQRDHQQQPGEAEPLTPTYNISANGLTELHDDLSNYIDGHTPEGSKADSAVSSFYLDIQPSPDQSGLDINGIKPEPICDYTPASGFFPYCSFTNGETSPTVSMAELEHLAQNISKSHLETCQYLREELQQITWQTFLQEEIENYQNKQREVMWQLCAIKITEAIQYVVEFAKRIDGFMELCQNDQIVLLKAGSLEVVFIRMCRAFDSQNNTVYFDGKYASPDVFKSLGCEDFISFVFEFGKSLCSMHLTEDEIALFSAFVLMSADRSWLQEKVKIEKLQQKIQLALQHVLQKNHREDGILTKLICKVSTLRALCGRHTEKLMAFKAIYPDIVRLHFPPLYKELFTSEFEPAMQIDG	0.58	18.2	0.6	0.90	75.4	0.9	607.5	0.6	0.62
LXRb: Liver X Receptor β (NR1H2), cDNA driver (protein, UniProt P55055 1-460, looked up) Oxysterols receptor LXR-beta: MSSPTTSSLDTPLPGNGPPQPGAPSSSPTVKEEGPEPWPGGPDPDVPGTDEASSACSTDWVIPDPEEEPERKRKKGPAPKMLGHELCRVCGDKASGFHYNVLSCEGCKGFFRRSVVRGGARRYACRGGGTCQMDAFMRRKCQQCRLRKCKEAGMREQCVLSEEQIRKKKIRKQQQESQSQSQSPVGPQGSSSSASGPGASPGGSEAGSQGSGEGEGVQLTAAQELMIQQLVAAQLQCNKRSFSDQPKVTPWPLGADPQSRDARQQRFAHFTELAIISVQEIVDFAKQVPGFLQLGREDQIALLKASTIEIMLLETARRYNHETECITFLKDFTYSKDDFHRAGLQVEFINPIFEFSRAMRRLGLDDAEYALLIAINIFSADRPNVQEPGRVEALQQPYVEALLSYTRIKRPQDQLRFPRMLMKLVSLRTLSSVHSEQVFALRLQDKKLPPLLSEIWDVHE	1.44	45.5	1.4	0.81	68.0	0.8	866.1	0.9	0.88

Source: patent publication US20110263454A1, “Methods of Identifying Functional Characteristics of Promoters, Transcription Modifying Proteins and Transcription Modulating Agents” (Salk Institute for Biological Studies, priority 2008, published 2011)
